Source: ChEMBL document CHEMBL1926622, “Novel cyclohexyl-amides as potent antibacterials targeting bacterial type IIA topoisomerases” (Bioorg Med Chem Lett, 2011)
≈ marks a conversion by molar mass, not a printed value. One block for each molecule: values may come before it. Calls of active or inactive are those of the source. The calls are words filed in the database; no cut-off is given here.

Legend:
[1] = Inhibition of Escherichia coli DNA gyrase-mediated DNA replication using [3H]dATP by scintillation proximity assay
[2] = tested on: Haemophilus influenzae; assay: Antibacterial activity against Haemophilus influenzae H128 after 18 to 24 hrs by broth microdilution technique; type: functional
[3] = tested on: Staphylococcus aureus; assay: Antibacterial activity against Staphylococcus aureus WCUH 29 after 18 to 24 hrs by broth microdilution technique; type: functional
[4] = tested on: Streptococcus pneumoniae; assay: Antibacterial activity against Streptococcus pneumoniae 1629 after 18 to 24 hrs by broth microdilution technique; type: functional
[5] = Intrinsic clearance in monkey liver microsomes; type: ADME, Macaca mulatta, Microsome; settings: rhesus monkey
[6] = Plasma protein binding in human; type: ADME, cell-free; settings: read-out: PPB (converted)
[7] = tested on: Liver microsomes; assay: Intrinsic clearance in human liver microsomes; type: ADME, Microsome
[8] = tested on: Rattus norvegicus; assay: Hepatic blood flow in Sprague-Dawley rat at 2.9 mg/kg, iv; type: ADME, organism-based, Liver; parameters: dose 2.9 mg/kg, route intravenous; settings: in vivo
[9] = tested on: Canis familiaris; assay: Hepatic blood flow in Beagle dog at 2.6 mg/kg, iv; type: ADME, organism-based, Canis lupus familiaris, Liver; parameters: dose 2.6 mg/kg, route intravenous; settings: in vivo
[10] = tested on: Cynomolgus monkey; assay: Hepatic blood flow in cynomolgus monkey at 2.7 mg/kg, iv; type: ADME, organism-based, Macaca fascicularis, Liver; parameters: dose 2.7 mg/kg, route intravenous; settings: in vivo
[11] = tested on: Rattus norvegicus; assay: Renal clearance in Sprague-Dawley rat at 2.9 mg/kg, iv; type: ADME, organism-based, Kidney; parameters: dose 2.9 mg/kg, route intravenous; settings: in vivo
[12] = tested on: Canis familiaris; assay: Renal clearance in Beagle dog at 2.6 mg/kg, iv; type: ADME, organism-based, Canis lupus familiaris, Kidney; parameters: dose 2.6 mg/kg, route intravenous; settings: in vivo
[13] = tested on: Cynomolgus monkey; assay: Renal clearance in cynomolgus monkey at 2.7 mg/kg, iv; type: ADME, organism-based, Macaca fascicularis, Kidney; parameters: dose 2.7 mg/kg, route intravenous; settings: in vivo
[14] = tested on: Liver microsomes; assay: Drug metabolism in rat liver microsomes assessed as mono-oxidation metabolite formation; type: ADME, Microsome
[15] = Drug metabolism in dog liver microsomes assessed as mono-oxidation metabolite formation; type: ADME, Canis lupus familiaris, Microsome
[16] = Drug metabolism in monkey liver microsomes assessed as mono-oxidation metabolite formation; type: ADME, Macaca mulatta, Microsome; settings: rhesus monkey
[17] = tested on: Streptococcus pneumoniae; assay: Antibacterial activity against Streptococcus pneumoniae 1629 infected in rat assessed as log decrease in colony forming units per lung at 25 mg/kg, po after 48 hrs relative to untreated control; type: functional
[18] = tested on: Streptococcus pneumoniae; assay: Antibacterial activity against Streptococcus pneumoniae 1629 infected in rat assessed as complete eradication of infection at 50 mg/kg, po after 48 hrs; type: functional, organism-based; parameters: dose 50 mg/kg
[19] = Blood clearance in Sprague-Dawley rat at 2.9 mg/kg, iv; type: ADME, organism-based; parameters: dose 2.9 mg/kg, route intravenous
[20] = Volume of distribution at steady state in Sprague-Dawley rat at 2.9 mg/kg, iv; type: ADME, organism-based; parameters: dose 2.9 mg/kg, route intravenous; settings: in vivo, read-out: Vdss
[21] = Half life in Sprague-Dawley rat at 2.9 mg/kg, iv; type: ADME, organism-based; parameters: dose 2.9 mg/kg, route intravenous; settings: in vivo
[22] = AUC in Sprague-Dawley rat at 4.6 mg/kg, po; type: ADME, organism-based; parameters: dose 4.6 mg/kg, route oral; settings: plasma
[23] = Mean residence time in Sprague-Dawley rat at 4.6 mg/kg, po; type: ADME, organism-based; parameters: dose 4.6 mg/kg, route oral; settings: in vivo
[24] = Oral bioavailability in Sprague-Dawley rat at 4.6 mg/kg; type: ADME, organism-based; settings: in vivo
[25] = Plasma protein binding in rat; type: ADME, cell-free; settings: read-out: PPB (converted)
[26] = Blood clearance in Beagle dog at 2.6 mg/kg, iv; type: ADME, organism-based, Canis lupus familiaris; parameters: dose 2.6 mg/kg, route intravenous
[27] = Volume of distribution at steady state in Beagle dog at 2.6 mg/kg, iv; type: ADME, organism-based, Canis lupus familiaris; parameters: dose 2.6 mg/kg, route intravenous; settings: in vivo, read-out: Vdss
[28] = Half life in Beagle dog at 2.6 mg/kg, iv; type: ADME, organism-based, Canis lupus familiaris; parameters: dose 2.6 mg/kg, route intravenous; settings: in vivo
[29] = AUC in Beagle dog at 4.5 mg/kg, po; type: ADME, organism-based, Canis lupus familiaris; parameters: dose 4.5 mg/kg, route oral; settings: plasma
[30] = Mean residence time in Beagle dog at 4.5 mg/kg, po; type: ADME, organism-based, Canis lupus familiaris; parameters: dose 4.5 mg/kg, route oral; settings: in vivo
[31] = Oral bioavailability in Beagle dog at 4.5 mg/kg; type: ADME, organism-based, Canis lupus familiaris; settings: in vivo
[32] = Plasma protein binding in dog; type: ADME, cell-free, Canis lupus familiaris; settings: read-out: PPB (converted)
[33] = tested on: Liver; assay: Intrinsic clearance in dog liver microsomes; type: ADME, Canis lupus familiaris, Microsome
[34] = Blood clearance in cynomolgus monkey at 2.7 mg/kg, iv; type: ADME, organism-based, Macaca fascicularis; parameters: dose 2.7 mg/kg, route intravenous
[35] = Volume of distribution at steady state in cynomolgus monkey at 2.7 mg/kg, iv; type: ADME, organism-based, Macaca fascicularis; parameters: dose 2.7 mg/kg, route intravenous; settings: in vivo, read-out: Vdss
[36] = Half life in cynomolgus monkey at 2.7 mg/kg, iv; type: ADME, organism-based, Macaca fascicularis; parameters: dose 2.7 mg/kg, route intravenous; settings: in vivo
[37] = AUC in cynomolgus monkey at 4.4 mg/kg, po; type: ADME, organism-based, Macaca fascicularis; parameters: dose 4.4 mg/kg, route oral; settings: plasma
[38] = Mean residence time in cynomolgus monkey at 4.4 mg/kg, po; type: ADME, organism-based, Macaca fascicularis; parameters: dose 4.4 mg/kg, route oral; settings: in vivo
[39] = Oral bioavailability in cynomolgus monkey at 4.4 mg/kg; type: ADME, organism-based, Macaca fascicularis; settings: in vivo
[40] = Plasma protein binding in monkey; type: ADME, cell-free, Macaca mulatta; settings: rhesus monkey, read-out: PPB (converted)
[41] = molecular target: Voltage-gated inwardly rectifying potassium channel KCNH2 (Homo sapiens, UniProt Q12809); assay: Inhibition of human ERG by whole cell patch clamp assay
[42] = tested on: Haemophilus influenzae; assay: Antibacterial activity against Haemophilus influenzae Q1 after 18 to 24 hrs by broth microdilution technique; type: functional

Chain of Voltage-gated inwardly rectifying potassium channel KCNH2 (Q12809 whole entry): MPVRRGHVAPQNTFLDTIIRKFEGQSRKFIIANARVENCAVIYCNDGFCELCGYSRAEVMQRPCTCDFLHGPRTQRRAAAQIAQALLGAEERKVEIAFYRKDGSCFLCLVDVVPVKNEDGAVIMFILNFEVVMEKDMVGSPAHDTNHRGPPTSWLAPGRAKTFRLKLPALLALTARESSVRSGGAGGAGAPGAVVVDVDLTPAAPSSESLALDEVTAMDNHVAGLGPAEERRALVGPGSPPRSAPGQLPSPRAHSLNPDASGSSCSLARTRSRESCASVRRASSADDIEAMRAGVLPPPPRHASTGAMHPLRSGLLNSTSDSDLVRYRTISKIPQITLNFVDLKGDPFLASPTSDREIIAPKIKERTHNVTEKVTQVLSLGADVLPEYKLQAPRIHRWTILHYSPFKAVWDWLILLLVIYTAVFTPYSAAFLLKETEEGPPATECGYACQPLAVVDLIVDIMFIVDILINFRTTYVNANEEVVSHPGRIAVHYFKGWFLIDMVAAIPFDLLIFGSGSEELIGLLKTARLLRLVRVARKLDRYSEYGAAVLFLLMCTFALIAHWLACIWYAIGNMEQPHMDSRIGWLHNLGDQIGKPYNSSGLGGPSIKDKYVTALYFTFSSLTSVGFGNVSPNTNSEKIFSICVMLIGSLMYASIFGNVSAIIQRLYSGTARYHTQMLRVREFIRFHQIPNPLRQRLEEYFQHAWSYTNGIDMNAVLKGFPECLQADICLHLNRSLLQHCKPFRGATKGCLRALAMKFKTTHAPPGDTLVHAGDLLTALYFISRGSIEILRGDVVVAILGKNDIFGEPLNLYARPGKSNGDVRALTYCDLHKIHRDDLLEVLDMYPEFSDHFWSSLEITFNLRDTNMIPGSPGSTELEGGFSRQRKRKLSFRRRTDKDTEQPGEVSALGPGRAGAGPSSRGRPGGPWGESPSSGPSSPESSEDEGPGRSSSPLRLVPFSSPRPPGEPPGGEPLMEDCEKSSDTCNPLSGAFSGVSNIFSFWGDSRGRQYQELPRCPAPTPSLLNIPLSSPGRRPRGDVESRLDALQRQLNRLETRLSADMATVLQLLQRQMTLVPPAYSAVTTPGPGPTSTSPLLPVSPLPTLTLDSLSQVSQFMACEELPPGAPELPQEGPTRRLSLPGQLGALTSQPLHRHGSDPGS

SMILES: COc1ccc2nccc(NC(=O)[C@]3(O)CC[C@@H](NCc4cnc5c(c4)OCCO5)CC3)c2n1
- IC50 [1]: 0.01 µg/mL (≈ 0.0215 µM)
- MIC [2]: 2 µg/mL (≈ 4.3 µM)
- MIC [3]: 0.03 µg/mL (≈ 0.0644 µM)
- MIC [4]: 0.06 µg/mL (≈ 0.129 µM)

SMILES: COc1cc(F)c2nccc(NC(=O)[C@]3(O)CC[C@@H](NCc4cc5c(cn4)OCCO5)CC3)c2c1
- IC50 [1]: 0.009 µg/mL (≈ 0.0187 µM)
- MIC [2]: 1 µg/mL (≈ 2.07 µM)
- MIC [3]: 0.06 µg/mL (≈ 0.124 µM)
- MIC [4]: 0.125 µg/mL (≈ 0.259 µM)
- IC50 [41]: 113 µM

SMILES: COc1ccc2nccc(NC(=O)[C@H]3CC[C@H](NCc4ccc5c(c4)OCCO5)CC3)c2n1
- IC50 [1]: 0.003 µg/mL (≈ 0.00669 µM)
- MIC [2]: 1 µg/mL (≈ 2.23 µM)
- MIC [3]: 0.03 µg/mL (≈ 0.0669 µM)
- MIC [4]: 0.125 µg/mL (≈ 0.279 µM)

SMILES: COc1ccc2nccc(NC(=O)[C@H]3CC[C@H](NCc4ccc5c(c4)OCCO5)CC3)c2c1
- IC50 [1]: 0.017 µg/mL (≈ 0.038 µM)
- MIC [42]: 2 µg/mL (≈ 4.47 µM)
- MIC [3]: 0.03 µg/mL (≈ 0.067 µM)
- MIC [4]: 0.25 µg/mL (≈ 0.559 µM)
- IC50 [41]: 25 µM

SMILES: Cc1ccc2cccc(NC(=O)[C@H]3CC[C@H](NCc4cc5c(cn4)OCCO5)CC3)c2n1
- IC50 [1]: 0.069 µg/mL (≈ 0.16 µM)
- MIC [2]: 2 µg/mL (≈ 4.62 µM)
- MIC [3]: 0.125 µg/mL (≈ 0.289 µM)
- MIC [4]: 0.25 µg/mL (≈ 0.578 µM)

SMILES: Cc1ccc2cccc(NC(=O)[C@]3(O)CC[C@@H](NCc4cc5c(cn4)OCCO5)CC3)c2n1
- IC50 [1]: 0.05 µg/mL (≈ 0.111 µM)
- MIC [2]: 2 µg/mL (≈ 4.46 µM)
- MIC [3]: 0.125 µg/mL (≈ 0.279 µM)
- MIC [4]: 0.125 µg/mL (≈ 0.279 µM)
- IC50 [41]: 2 µM

The remaining molecules from weak to strong by MIC [3], led by results:

- IC50 [1]: 0.102 µg/mL (≈ 0.221 µM)
- MIC [2]: 16 µg/mL (≈ 34.6 µM)
- MIC [3]: 0.5 µg/mL (≈ 1.08 µM)
- MIC [4]: 0.5 µg/mL (≈ 1.08 µM)
SMILES: CO[C@@H]1C[C@H](C(=O)Nc2cccc3ccc(C)nc23)CC[C@H]1NCc1cc2c(cn1)OCCO2

- IC50 [1]: 0.01 µg/mL (≈ 0.0215 µM)
- MIC [2]: 1 µg/mL (≈ 2.15 µM)
- MIC [3]: 0.125 µg/mL (≈ 0.269 µM)
- MIC [4]: 0.125 µg/mL (≈ 0.269 µM)
SMILES: COc1ccc2nccc(NC(=O)[C@]3(O)CC[C@@H](NCc4cc5c(cn4)OCCO5)CC3)c2c1
- IC50 [41]: 200 µM

- IC50 [1]: 0.004 µg/mL (≈ 0.00861 µM)
- MIC [2]: 0.5 µg/mL (≈ 1.08 µM)
- MIC [3]: 0.03 µg/mL (≈ 0.0646 µM)
- MIC [4]: 0.03 µg/mL (≈ 0.0646 µM)
SMILES: COc1ccc2nccc(NC(=O)[C@]3(O)CC[C@@H](NCc4ccc5c(c4)OCCO5)CC3)c2n1
- IC50 [41]: 25 µM

- IC50 [1]: 0.002 µg/mL (≈ 0.00435 µM)
- MIC [2]: 0.5 µg/mL (≈ 1.09 µM)
- MIC [3]: 0.03 µg/mL (≈ 0.0653 µM)
- MIC [4]: 0.06 µg/mL (≈ 0.131 µM)
SMILES: N#Cc1ccc2cccc(NC(=O)[C@]3(O)CC[C@@H](NCc4cc5c(cn4)OCCO5)CC3)c2n1

- CL [5]: 2.6 mL/min/g
- fraction unbound [6]: 0.274
- CL [7]: 0.8 mL/min/g
- IC50 [1]: 0.013 µg/mL (≈ 0.0279 µM)
- QH [8]: 73%
- QH [9]: 73%
- QH [10]: 73%
- CL [11]: 3%
- CL [12]: 3%
- CL [13]: 3%
- Drug metabolism [14]: Active
- Drug metabolism [15]: Active
- Drug metabolism [16]: Active
- MIC [2]: 0.5 µg/mL (≈ 1.07 µM)
- MIC [3]: 0.01 µg/mL (≈ 0.0215 µM)
- MIC [4]: 0.125 µg/mL (≈ 0.269 µM)
- clearance [19]: 41.1 mL/min/kg
- Vd [20]: 2.41 L/kg
- half-life [21]: 1 h
- AUC [22]: 340 ng·h/mL
- MRT [23]: 2.9 h
- bioavailability [24]: 18%
- fraction unbound [25]: 0.268
- clearance [26]: 8.4 mL/min/kg
- Vd [27]: 3.7 L/kg
- half-life [28]: 6.3 h
- AUC [29]: 5700 ng·h/mL
- MRT [30]: 9.8 h
- bioavailability [31]: 63%
- fraction unbound [32]: 0.263
- CL [33]: 2.2 mL/min/g
- clearance [34]: 34.2 mL/min/kg
- Vd [35]: 4.1 L/kg
- half-life [36]: 1.8 h
- AUC [37]: 190 ng·h/mL
- MRT [38]: 6.4 h
- bioavailability [39]: 9%
- fraction unbound [40]: 0.165
SMILES: COc1ccc2nccc(NC(=O)[C@]3(O)CC[C@@H](NCc4cc5c(cn4)OCCO5)CC3)c2n1
- log10cfu [17]: 2
- Activity [18]: Active

- IC50 [1]: 0.008 µg/mL (≈ 0.0178 µM)
- MIC [2]: 0.25 µg/mL (≈ 0.556 µM)
- MIC [3]: 0.01 µg/mL (≈ 0.0222 µM)
- MIC [4]: 0.03 µg/mL (≈ 0.0667 µM)
SMILES: COc1ccc2nccc(NC(=O)[C@H]3CC[C@H](NCc4cc5c(cn4)OCCO5)CC3)c2n1
- IC50 [41]: 29 µM

- IC50 [1]: 0.001 µg/mL (≈ 0.00218 µM)
- MIC [2]: 0.5 µg/mL (≈ 1.09 µM)
- MIC [3]: 0.01 µg/mL (≈ 0.0218 µM)
- MIC [4]: 0.03 µg/mL (≈ 0.0653 µM)
SMILES: N#Cc1ccc2cccc(NC(=O)[C@@H]3CC[C@@H](NCc4cc5c(cn4)OCCO5)[C@@H](O)C3)c2n1
